# According to ChEMBL document CHEMBL3991601, “The target landscape of clinical kinase drugs” (Science, 2017):
# The source made the active and inactive calls. Cut-off read from the data, not from the text of the source, for most assays here: actives have a measured Kd and inactives only a lower limit.
# What was measured:
# [1] = biological target: T1, Serine/threonine-protein kinase PLK4 (Homo sapiens, UniProt O00444)
# T1 sequence (O00444 whole entry): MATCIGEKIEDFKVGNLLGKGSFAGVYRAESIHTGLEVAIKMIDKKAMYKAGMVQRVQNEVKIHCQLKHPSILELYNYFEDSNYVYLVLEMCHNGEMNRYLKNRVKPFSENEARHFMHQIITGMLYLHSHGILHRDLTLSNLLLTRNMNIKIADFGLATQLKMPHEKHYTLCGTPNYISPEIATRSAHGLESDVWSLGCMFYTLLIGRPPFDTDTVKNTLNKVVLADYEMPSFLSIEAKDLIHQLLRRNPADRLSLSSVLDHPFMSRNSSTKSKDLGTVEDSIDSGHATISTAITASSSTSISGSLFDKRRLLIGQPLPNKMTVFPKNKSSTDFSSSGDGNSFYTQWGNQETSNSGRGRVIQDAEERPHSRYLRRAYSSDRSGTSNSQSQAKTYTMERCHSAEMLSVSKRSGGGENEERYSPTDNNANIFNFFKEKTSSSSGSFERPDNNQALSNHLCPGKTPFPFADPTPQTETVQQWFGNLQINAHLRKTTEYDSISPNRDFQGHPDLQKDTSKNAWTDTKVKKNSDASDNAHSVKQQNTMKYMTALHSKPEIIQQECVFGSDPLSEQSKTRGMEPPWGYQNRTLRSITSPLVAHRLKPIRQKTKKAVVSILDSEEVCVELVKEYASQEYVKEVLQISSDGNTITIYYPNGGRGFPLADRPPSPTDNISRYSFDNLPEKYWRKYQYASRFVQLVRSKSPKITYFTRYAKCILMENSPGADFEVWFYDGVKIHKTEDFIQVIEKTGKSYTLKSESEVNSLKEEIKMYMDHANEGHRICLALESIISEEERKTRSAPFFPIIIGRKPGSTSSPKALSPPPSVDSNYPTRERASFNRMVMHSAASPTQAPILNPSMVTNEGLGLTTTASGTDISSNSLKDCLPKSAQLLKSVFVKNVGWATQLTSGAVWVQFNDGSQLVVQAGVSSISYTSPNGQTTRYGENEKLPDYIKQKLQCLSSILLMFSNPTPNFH
# [2] = biological target: T2, AarF domain-containing protein kinase 1 (Homo sapiens, UniProt Q86TW2)
# T2 sequence (Q86TW2 whole entry): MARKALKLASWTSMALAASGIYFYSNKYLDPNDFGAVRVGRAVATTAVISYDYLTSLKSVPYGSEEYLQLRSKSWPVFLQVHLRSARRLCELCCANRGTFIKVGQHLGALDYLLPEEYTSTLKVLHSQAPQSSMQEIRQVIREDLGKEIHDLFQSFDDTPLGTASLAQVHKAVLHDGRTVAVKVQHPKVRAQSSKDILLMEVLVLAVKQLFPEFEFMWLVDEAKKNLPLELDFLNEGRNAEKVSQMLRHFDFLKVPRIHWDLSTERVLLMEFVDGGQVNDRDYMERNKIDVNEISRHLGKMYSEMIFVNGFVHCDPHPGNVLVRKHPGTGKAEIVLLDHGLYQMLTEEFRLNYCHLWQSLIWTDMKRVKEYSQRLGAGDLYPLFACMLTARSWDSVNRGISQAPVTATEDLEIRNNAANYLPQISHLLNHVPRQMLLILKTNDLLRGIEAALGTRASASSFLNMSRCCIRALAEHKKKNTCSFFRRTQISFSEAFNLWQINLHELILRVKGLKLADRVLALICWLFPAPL
# [3] = biological target: T3, Succinate--CoA ligase [ADP-forming] subunit beta, mitochondrial (Homo sapiens, UniProt Q9P2R7)
# T3 sequence (Q9P2R7 whole entry): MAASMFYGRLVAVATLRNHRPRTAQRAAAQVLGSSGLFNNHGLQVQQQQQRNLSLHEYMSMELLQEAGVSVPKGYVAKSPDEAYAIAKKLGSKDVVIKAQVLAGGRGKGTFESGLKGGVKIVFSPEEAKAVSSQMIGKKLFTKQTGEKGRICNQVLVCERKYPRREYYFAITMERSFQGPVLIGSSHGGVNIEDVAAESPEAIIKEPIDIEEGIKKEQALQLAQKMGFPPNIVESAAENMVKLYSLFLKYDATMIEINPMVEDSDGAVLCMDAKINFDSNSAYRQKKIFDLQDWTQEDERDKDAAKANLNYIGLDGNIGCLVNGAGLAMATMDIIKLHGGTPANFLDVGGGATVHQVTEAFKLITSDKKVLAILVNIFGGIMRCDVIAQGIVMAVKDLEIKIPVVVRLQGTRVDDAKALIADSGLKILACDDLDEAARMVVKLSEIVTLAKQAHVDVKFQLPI
# [4] = biological target: Calcium/calmodulin-dependent protein kinase type II subunit delta (Homo sapiens, UniProt Q13557)
# Calcium/calmodulin-dependent protein kinase type II subunit delta, sequence (Q13557 whole entry): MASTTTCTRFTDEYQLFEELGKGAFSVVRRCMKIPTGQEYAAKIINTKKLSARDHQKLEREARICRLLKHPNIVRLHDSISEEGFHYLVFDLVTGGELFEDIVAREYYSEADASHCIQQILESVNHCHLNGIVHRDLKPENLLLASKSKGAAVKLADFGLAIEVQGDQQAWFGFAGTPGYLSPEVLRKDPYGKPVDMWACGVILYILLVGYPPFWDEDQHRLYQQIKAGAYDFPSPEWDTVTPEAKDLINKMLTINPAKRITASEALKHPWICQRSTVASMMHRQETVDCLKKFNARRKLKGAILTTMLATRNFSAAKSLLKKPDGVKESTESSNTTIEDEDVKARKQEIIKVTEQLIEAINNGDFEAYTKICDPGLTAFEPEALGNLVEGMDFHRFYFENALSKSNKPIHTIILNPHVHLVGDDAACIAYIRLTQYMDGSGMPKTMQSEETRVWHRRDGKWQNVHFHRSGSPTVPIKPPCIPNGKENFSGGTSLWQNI
# [5] = biological target: Tyrosine-protein kinase BTK (Homo sapiens, UniProt Q06187)
# Tyrosine-protein kinase BTK, sequence (Q06187 whole entry): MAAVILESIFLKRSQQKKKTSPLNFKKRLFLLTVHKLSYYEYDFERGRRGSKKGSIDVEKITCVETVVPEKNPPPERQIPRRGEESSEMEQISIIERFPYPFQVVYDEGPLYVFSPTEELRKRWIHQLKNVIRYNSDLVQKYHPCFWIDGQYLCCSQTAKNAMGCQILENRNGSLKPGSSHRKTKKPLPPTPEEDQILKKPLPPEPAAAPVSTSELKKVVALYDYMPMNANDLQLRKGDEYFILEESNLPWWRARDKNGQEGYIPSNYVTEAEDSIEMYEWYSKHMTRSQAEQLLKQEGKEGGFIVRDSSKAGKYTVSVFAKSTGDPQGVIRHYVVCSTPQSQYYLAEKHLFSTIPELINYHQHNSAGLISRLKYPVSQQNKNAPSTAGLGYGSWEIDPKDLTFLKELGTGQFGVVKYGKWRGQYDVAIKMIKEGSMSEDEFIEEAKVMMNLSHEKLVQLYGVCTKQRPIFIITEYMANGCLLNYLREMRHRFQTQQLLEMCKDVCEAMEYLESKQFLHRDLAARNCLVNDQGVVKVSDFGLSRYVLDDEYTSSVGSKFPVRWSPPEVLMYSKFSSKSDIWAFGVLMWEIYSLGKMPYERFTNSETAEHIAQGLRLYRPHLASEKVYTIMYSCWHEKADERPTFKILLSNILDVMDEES
# [6] = biological target: Receptor-interacting serine/threonine-protein kinase 2 (Homo sapiens, UniProt O43353)
# Receptor-interacting serine/threonine-protein kinase 2, sequence (O43353 whole entry, the tested form may be a part): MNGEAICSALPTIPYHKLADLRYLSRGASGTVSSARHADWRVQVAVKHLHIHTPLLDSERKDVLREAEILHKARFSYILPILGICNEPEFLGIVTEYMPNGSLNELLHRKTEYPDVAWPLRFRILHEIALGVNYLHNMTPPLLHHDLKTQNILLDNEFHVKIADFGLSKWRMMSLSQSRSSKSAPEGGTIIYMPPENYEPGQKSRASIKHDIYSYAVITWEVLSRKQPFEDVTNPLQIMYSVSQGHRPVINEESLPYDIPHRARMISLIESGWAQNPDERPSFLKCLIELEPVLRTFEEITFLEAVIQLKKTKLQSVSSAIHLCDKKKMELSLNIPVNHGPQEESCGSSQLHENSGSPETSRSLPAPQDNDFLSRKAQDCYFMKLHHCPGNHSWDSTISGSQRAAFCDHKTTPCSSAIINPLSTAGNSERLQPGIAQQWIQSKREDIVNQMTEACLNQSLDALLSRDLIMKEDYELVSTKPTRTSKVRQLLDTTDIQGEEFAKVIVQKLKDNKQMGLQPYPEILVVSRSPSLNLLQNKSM
# [7] = biological target: Epithelial discoidin domain-containing receptor 1 (Homo sapiens, UniProt Q08345)
# Epithelial discoidin domain-containing receptor 1, sequence (Q08345 whole entry, the tested form may be a part): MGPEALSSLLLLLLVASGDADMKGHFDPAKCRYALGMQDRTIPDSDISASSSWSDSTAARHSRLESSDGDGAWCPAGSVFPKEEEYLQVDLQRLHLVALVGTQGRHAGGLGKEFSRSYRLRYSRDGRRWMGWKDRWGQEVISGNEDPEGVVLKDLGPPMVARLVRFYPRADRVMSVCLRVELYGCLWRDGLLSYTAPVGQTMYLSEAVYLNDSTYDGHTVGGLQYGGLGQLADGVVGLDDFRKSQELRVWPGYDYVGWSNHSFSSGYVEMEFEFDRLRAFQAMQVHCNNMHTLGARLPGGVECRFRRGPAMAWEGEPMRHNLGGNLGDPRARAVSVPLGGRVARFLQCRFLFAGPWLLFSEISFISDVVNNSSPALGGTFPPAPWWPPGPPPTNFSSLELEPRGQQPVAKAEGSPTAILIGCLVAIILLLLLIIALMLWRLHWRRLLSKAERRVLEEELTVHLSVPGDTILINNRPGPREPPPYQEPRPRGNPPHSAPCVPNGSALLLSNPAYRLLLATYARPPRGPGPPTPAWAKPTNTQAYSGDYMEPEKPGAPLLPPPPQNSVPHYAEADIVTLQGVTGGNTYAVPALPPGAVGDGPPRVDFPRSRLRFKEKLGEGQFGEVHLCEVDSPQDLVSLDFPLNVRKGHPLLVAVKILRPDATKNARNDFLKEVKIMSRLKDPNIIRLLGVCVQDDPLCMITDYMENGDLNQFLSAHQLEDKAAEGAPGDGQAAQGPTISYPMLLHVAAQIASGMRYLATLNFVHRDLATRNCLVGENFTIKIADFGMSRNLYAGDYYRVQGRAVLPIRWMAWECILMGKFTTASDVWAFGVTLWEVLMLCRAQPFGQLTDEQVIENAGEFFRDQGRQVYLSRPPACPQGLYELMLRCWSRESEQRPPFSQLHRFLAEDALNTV
# [8] = biological target: Serine/threonine-protein kinase PAK 2 (Homo sapiens, UniProt Q13177)
# Serine/threonine-protein kinase PAK 2, sequence (Q13177 whole entry): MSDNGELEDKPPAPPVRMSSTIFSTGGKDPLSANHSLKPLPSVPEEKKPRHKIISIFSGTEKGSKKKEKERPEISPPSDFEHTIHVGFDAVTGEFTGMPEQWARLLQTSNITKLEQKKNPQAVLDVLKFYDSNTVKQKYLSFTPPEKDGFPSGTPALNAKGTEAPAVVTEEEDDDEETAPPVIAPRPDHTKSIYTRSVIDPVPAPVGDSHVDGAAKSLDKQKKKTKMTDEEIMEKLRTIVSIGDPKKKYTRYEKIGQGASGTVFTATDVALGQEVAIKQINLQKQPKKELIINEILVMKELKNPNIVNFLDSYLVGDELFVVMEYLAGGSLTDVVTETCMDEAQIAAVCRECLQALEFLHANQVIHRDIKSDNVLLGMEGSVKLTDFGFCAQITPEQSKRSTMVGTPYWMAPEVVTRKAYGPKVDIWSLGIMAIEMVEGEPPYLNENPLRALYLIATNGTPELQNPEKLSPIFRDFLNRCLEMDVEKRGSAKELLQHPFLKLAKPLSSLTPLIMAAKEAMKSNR
# Note: in the data inactive means no Kd found up to 30 µM.
Structure (SMILES),Kd [1],Kd [2],Kd [3],Kd [4],Kd [5],Kd [6],Kd [7],Kd [8]
C#Cc1cccc(Nc2ncnc3cc4c(cc23)OCCOCCOCCO4)c1 [ICOTINIB],> 30 µM (inactive),> 30 µM (inactive),> 30 µM (inactive),> 30 µM (inactive),> 30 µM (inactive),2.63 µM (active),> 30 µM (inactive),> 30 µM (inactive)
COc1cc2ncnc(Nc3ccc(O)cc3)c2cc1OC [WHI-P131],> 30 µM (inactive),> 30 µM (inactive),> 30 µM (inactive),> 30 µM (inactive),> 30 µM (inactive),5.94 µM (active),> 30 µM (inactive),> 30 µM (inactive)
O=C(O)c1ccc2c(c1)nc(Nc1cccc(Cl)c1)c1ccncc12 [SILMITASERTIB],> 30 µM (inactive),> 30 µM (inactive),> 30 µM (inactive),> 30 µM (inactive),> 30 µM (inactive),> 30 µM (inactive),> 30 µM (inactive),> 30 µM (inactive)
O[C@H]1CC[C@H](Nc2ncc3nc(Nc4c(F)cc(F)cc4F)n([C@H]4CCOC4)c3n2)CC1 [TANZISERTIB],> 30 µM (inactive),> 30 µM (inactive),> 30 µM (inactive),> 30 µM (inactive),> 30 µM (inactive),> 30 µM (inactive),> 30 µM (inactive),> 30 µM (inactive)
S=C(NCc1ccc2c(c1)OCO2)N1CCN(c2ncnc3c2oc2ccccc23)CC1 [AMUVATINIB],> 30 µM (inactive),> 30 µM (inactive),> 30 µM (inactive),> 30 µM (inactive),> 30 µM (inactive),> 30 µM (inactive),> 30 µM (inactive),> 30 µM (inactive)
CN1CCN(c2nc(C3=C(c4c[nH]c5ccccc45)C(=O)NC3=O)c3ccccc3n2)CC1 [SOTRASTAURIN],> 30 µM (inactive),> 30 µM (inactive),> 30 µM (inactive),> 30 µM (inactive),> 30 µM (inactive),> 30 µM (inactive),> 30 µM (inactive),> 30 µM (inactive)
CC1(COc2ccc3c(c2)ncn3-c2ccc3cccc(N4CCC(N)CC4)c3n2)COC1 [CRENOLANIB],> 30 µM (inactive),> 30 µM (inactive),0.007 µM,0.821 µM (active),> 30 µM (inactive),1.31 µM (active),> 30 µM (inactive),> 30 µM (inactive)
CNC(=O)c1cc(COc2nnc(Nc3ccc(Cl)cc3)c3ccoc23)ccn1 [TELATINIB],> 30 µM (inactive),> 30 µM (inactive),> 30 µM (inactive),> 30 µM (inactive),> 30 µM (inactive),> 30 µM (inactive),> 30 µM (inactive),> 30 µM (inactive)
COc1cc(F)c(F)c(Nc2ccc(I)cc2F)c1NS(=O)(=O)C1(C[C@H](O)CO)CC1 [REFAMETINIB],> 30 µM (inactive),0.778 µM,> 30 µM (inactive),> 30 µM (inactive),> 30 µM (inactive),> 30 µM (inactive),> 30 µM (inactive),> 30 µM (inactive)
CNC(=O)c1ccc(Nc2ncc(C(F)(F)F)c(NCc3nccnc3N(C)S(C)(=O)=O)n2)cc1 [DEFACTINIB],> 30 µM (inactive),> 30 µM (inactive),> 30 µM (inactive),> 30 µM (inactive),> 30 µM (inactive),> 30 µM (inactive),> 30 µM (inactive),> 30 µM (inactive)
Cc1ccc(C(=O)Nc2ccc(Oc3cc4cnn(C)c4cc3-c3cn[nH]c3)c(F)c2)c(=O)n1-c1ccc(F)cc1 [MERESTINIB],1.61 µM (active),> 30 µM (inactive),> 30 µM (inactive),> 30 µM (inactive),> 30 µM (inactive),> 30 µM (inactive),0.174 µM (active),> 30 µM (inactive)
CNC(=O)c1cccc(-c2ccc3c(N4CCOC[C@@H]4C)nc(N4CCOC[C@@H]4C)nc3n2)c1 [VISTUSERTIB],> 30 µM (inactive),> 30 µM (inactive),> 30 µM (inactive),> 30 µM (inactive),> 30 µM (inactive),> 30 µM (inactive),,> 30 µM (inactive)
C=CC(=O)Nc1cc(Nc2nccc(-c3cn(C)c4ccccc34)n2)c(OC)cc1N(C)CCN(C)C [OSIMERTINIB],> 30 µM (inactive),> 30 µM (inactive),> 30 µM (inactive),> 30 µM (inactive),0.525 µM (active),> 30 µM (inactive),> 30 µM (inactive),> 30 µM (inactive)
Cc1cc(-c2cc(OC(=O)c3ccccc3)ccc2Cl)cc2nnc(Nc3ccc(OCCN4CCCC4)cc3)nc12 [TG100-801],> 30 µM (inactive),> 30 µM (inactive),,> 30 µM (inactive),> 30 µM (inactive),0.192 µM (active),1.73 µM,> 30 µM (inactive)
Cc1cc(Nc2nc(N[C@@H](C)c3ncc(F)cn3)ncc2Cl)n[nH]1 [AZD-1480],0.308 µM (active),> 30 µM (inactive),,> 30 µM (inactive),> 30 µM (inactive),> 30 µM (inactive),> 30 µM (inactive),> 30 µM (inactive)

# Next, values leading:
Kd [1],Kd [2],Kd [3],Kd [4],Kd [5],Kd [6],Kd [7],Kd [8],Structure (SMILES)
> 30 µM (inactive),> 30 µM (inactive),> 30 µM (inactive),> 30 µM (inactive),> 30 µM (inactive),> 30 µM (inactive),> 30 µM (inactive),> 30 µM (inactive),Cn1c(=O)c(F)c(Nc2ccc(I)cc2F)c2c(=O)n(C[C@@H](O)CO)cnc21 [TAK-733]
> 30 µM (inactive),> 30 µM (inactive),> 30 µM (inactive),> 30 µM (inactive),> 30 µM (inactive),0.39 µM (active),> 30 µM (inactive),> 30 µM (inactive),COc1cc2ncnc3c2cc1OCCCCCN(C)Cc1ccc(Br)cc1N3 [JNJ-26483327]
> 30 µM (inactive),> 30 µM (inactive),> 30 µM (inactive),> 30 µM (inactive),> 30 µM (inactive),> 30 µM (inactive),14.7 µM (active),> 30 µM (inactive),Cc1cc(C(=O)Nc2cc(Oc3ccc4nc(NC(=O)C5CC5)cn4n3)ccc2C)n(C)n1 [TAK-593]
> 30 µM (inactive),> 30 µM (inactive),> 30 µM (inactive),> 30 µM (inactive),> 30 µM (inactive),1.16 µM (active),> 30 µM (inactive),> 30 µM (inactive),COc1cccc2cc(-c3nc([C@H]4CC[C@H](C(=O)O)CC4)n4ncnc(N)c34)[nH]c12 [OSI-027]
> 30 µM (inactive),> 30 µM (inactive),> 30 µM (inactive),> 30 µM (inactive),> 30 µM (inactive),,> 30 µM (inactive),> 30 µM (inactive),CC(C)(O)CC(=O)NCCn1ccc2ncnc(Nc3ccc(Oc4cccc(C(F)(F)F)c4)c(Cl)c3)c21 [TAK-285]
